Bounds are passed on as bounds.

22 compounds from US20260274829A1, “NEW E3 UBIQUITIN LIGASE LIGAND, PROTEIN DEGRADATION AGENT AND USE THEREOF” (GLUETACS THERAPEUTICS (SHANGHAI) CO., LTD., priority 2023, published 2026) can be followed below.

The target of the experiment is T1, human Cereblon WT GST-tagged protein (Homo sapiens, UniProt Q96SW2).
T1 construct: purchased CISBIO 64BDCRBNPEH
T1 sequence (Q96SW2 whole entry): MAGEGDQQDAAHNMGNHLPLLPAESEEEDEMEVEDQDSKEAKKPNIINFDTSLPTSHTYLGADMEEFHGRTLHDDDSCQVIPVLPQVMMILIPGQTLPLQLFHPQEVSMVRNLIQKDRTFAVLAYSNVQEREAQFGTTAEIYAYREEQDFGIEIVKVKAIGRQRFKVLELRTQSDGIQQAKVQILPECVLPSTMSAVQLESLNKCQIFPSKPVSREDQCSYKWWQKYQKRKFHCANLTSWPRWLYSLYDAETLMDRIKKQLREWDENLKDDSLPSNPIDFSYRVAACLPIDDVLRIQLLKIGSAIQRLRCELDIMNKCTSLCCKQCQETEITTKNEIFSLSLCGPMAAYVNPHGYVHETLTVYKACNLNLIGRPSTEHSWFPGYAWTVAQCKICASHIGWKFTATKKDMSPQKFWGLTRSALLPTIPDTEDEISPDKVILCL
The experiment in a line: CRBN binding, HTRF CEREBLON BINDING kit. Conditions: CRBN binding, HTRF CEREBLON BINDING kit. Here is the method:
The CEREBLON BINDING kits (specification: 10,000 tests; product number: Catalog #64BDCRBNPEH; CISBIO company) was used to determine the CRBN binding ability of the compounds to be tested through a HTRF method (homogeneous time-resolved fluorescence). The specific methods are as follows: • 1. […] Then, 2.5 μL of human Cereblon WT GST-tagged protein solution was added to each well. Finally, 5 μL of the thoroughly mixed Thalidomide-Re reagent and GST Eu antibody working solution were added to each of the aforementioned wells. […] The blank control wells were sequentially added with 2.5 μL of diluent #9 (1×) solution, 2.5 μL of binding buffer, and 5 μL of thoroughly mixed Thalidomide-Re reagent and GST Eu antibody working solution. • 4. After sealing and incubating the solutions in the aforementioned wells at room temperature for 3 hours, the absorbance values at emission wavelengths of 620 nm and 665 nm were detected by the HTRF method using a Spark microplate reader (V3.1 SP1).
The corresponding CRBN binding inhibition rate was calculated using the following method:
[formula] [formula] [formula] • Note: OD 665 nmcompound is the absorbance value of each well of the compounds to be tested of the present disclosure at an emission wavelength of 665 nm. • OD 620 nmcompound is the absorbance value of each well of the compounds to be tested of the present disclosure at an emission wavelength of 620 nm. • OD 665 nmcontrol is the absorbance value of the blank control well at an emission wavelength of 665 nm. • OD 620 nmcontrol is the absorbance value of the blank control well at an emission wavelength of 620 nm. • OD 665 nmStd0 is the absorbance value of the solvent control well at an emission wavelength of 665 nm. • OD 620 nmStd0 is the absorbance value of the solvent control well at an emission wavelength of 620 nm.
`COc1cc2nn(C3CCN(Cc4cccc(NC5CCC(=O)NC5=O)c4)CC3)cc2cc1NC(=O)c1cccc(C(F)(F)F)n1` (stereo not shown) [GT-04763, N-(2-(1-(3-((2,6-dioxopiperidin-3-yl)amino)benzyl)piperidin-4-yl)-6-methoxy-2H-indazol-5-yl)-6-(trifluoromethyl)picolinamide] showed a half-inhibitory concentration (IC50) of 500 to 1000 nM. Consider `COc1cc2nn(C3CCN(Cc4cccc(N5CCC(=O)NC5=O)c4)CC3)cc2cc1NC(=O)c1cccc(C(F)(F)F)n1` [GT-04774, N-(2-(1-(3-(2,4-dioxotetrahydropyrimidin-1(2H)-yl)benzyl)piperidin-4-yl)-6-methoxy-2H-indazol-5-yl)-6-(trifluoromethyl)picolinamide], for which the concentration for half-maximal inhibition (IC50) was 1000 to 1900 nM. In turn, `COc1cc2nn(C3CCN(Cc4ccc(N5CCC(=O)NC5=O)c(F)c4)CC3)cc2cc1NC(=O)c1cccc(C(F)(F)F)n1` [GT-04775, N-(2-(1-(4-(2,4-dioxotetrahydropyrimidin-1(2H)-yl)-3-fluorobenzyl)piperidin-4-yl)-6-methoxy-2H-indazol-5-yl)-6-(trifluoromethyl)picolinamide] displayed an IC50 of 1000 to 1900 nM.

`COc1cc2nn(C3CCN(Cc4ccc(N5CCC(=O)NC5=O)cc4F)CC3)cc2cc1NC(=O)c1cccc(C(F)(F)F)n1` [GT-04777, N-(2-(1-(4-(2,4-dioxotetrahydropyrimidin-1(2H)-yl)-2-fluorobenzyl)piperidin-4-yl)-6-methoxy-2H-indazol-5-yl)-6-(trifluoromethyl)picolinamide] had an IC50 of 1000 to 1900 nM. Compound `NC(=O)c1ncc(N2CCCCC2)nc1Nc1ccc(C2CCN(Cc3ccc(C4CCC(=O)NC4=O)cc3)CC2)cc1` (stereo not shown) [GT-04785, 3-((4-(1-(4-(2,6-dioxopiperidin-3-yl)benzyl)piperidin-4-yl)phenyl)amino)-5-(piperidin-1-yl)pyrazine-2-carboxamide] had an IC50 of 500 to 1000 nM. In the case of `NC(=O)c1ncc(N2CCCCC2)nc1Nc1ccc(C2CCN(Cc3ccc(C4CCC(=O)NC4=O)c(F)c3)CC2)cc1` (stereo not shown) [GT-04786, 3-((4-(1-(4-(2,6-dioxopiperidin-3-yl)-3-fluorobenzyl)piperidin-4-yl)phenyl)amino)-5-(piperidin-1-yl)pyrazine-2-carboxamide], the IC50 was under 500 nM. For `NC(=O)c1ncc(N2CCCCC2)nc1Nc1ccc(C2CCN(Cc3cccc(N4CCC(=O)NC4=O)c3)CC2)cc1` [GT-04787, 3-((4-(1-(3-(2,4-dioxotetrahydropyrimidin-1(2H)-yl)benzyl)piperidin-4-yl)phenyl)amino)-5-(piperidin-1-yl)pyrazine-2-carboxamide], the IC50 lay within 500 to 1000 nM.

As to `NC(=O)c1ncc(N2CCCCC2)nc1Nc1ccc(C2CCN(Cc3cccc(NC4CCC(=O)NC4=O)c3)CC2)cc1` (stereo not shown) [GT-04791, 3-((4-(1-(3-((2,6-dioxopiperidin-3-yl)amino)benzyl)piperidin-4-yl)phenyl)amino)-5-(piperidin-1-yl)pyrazine-2-carboxamide], the concentration for half-maximal inhibition (IC50) was 500 to 1000 nM.

As to `CN1CCN([C@@H]2CCCN(c3cnc(C(N)=O)c(Nc4ccc(C5CCN(Cc6ccc(C7CCC(=O)NC7=O)cc6)CC5)cc4)n3)C2)C1=O` (stereo partly drawn) [GT-04798, 3-((4-(1-(4-(2,6-dioxopiperidin-3-yl)benzyl)piperidin-4-yl)phenyl)amino)-5-((R)-3-(3-methyl-2-oxoimidazolidin-1-yl)piperidin-1-yl)pyrazine-2-carboxamide], the concentration for half-maximal inhibition (IC50) is under 500 nM. In the case of `CN1CCN([C@@H]2CCCN(c3cnc(C(N)=O)c(Nc4ccc(C5CCN(Cc6ccc(C7CCC(=O)NC7=O)c(F)c6)CC5)cc4)n3)C2)C1=O` (stereo partly drawn) [GT-04799, 3-((4-(1-(4-(2,6-dioxopiperidin-3-yl)-3-fluorobenzyl)piperidin-4-yl)phenyl)amino)-5-((R)-3-(3-methyl-2-oxoimidazolidin-1-yl)piperidin-1-yl)pyrazine-2-carboxamide], the IC50 is under 500 nM.

Regarding `CN1CCN([C@@H]2CCCN(c3cnc(C(N)=O)c(Nc4ccc(C5CCN(Cc6cccc(N7CCC(=O)NC7=O)c6)CC5)cc4)n3)C2)C1=O` [GT-04800, (R)-3-((4-(1-(3-(2,4-dioxotetrahydropyrimidin-1(2H)-yl)benzyl)piperidin-4-yl)phenyl)amino)-5-(3-(3-methyl-2-oxoimidazolidin-1-yl)piperidin-1-yl)pyrazine-2-carboxamide], the 50% inhibitory concentration (IC50) fell in the range of 500 to 1000 nM. On to `CN1CCN([C@@H]2CCCN(c3cnc(C(N)=O)c(Nc4ccc(C5CCN(Cc6ccc(N7CCC(=O)NC7=O)c(F)c6)CC5)cc4)n3)C2)C1=O` [GT-04801, (R)-3-((4-(1-(4-(2,4-dioxotetrahydropyrimidin-1(2H)-yl)-3-fluorobenzyl)piperidin-4-yl)phenyl)amino)-5-(3-(3-methyl-2-oxoimidazolidin-1-yl)piperidin-1-yl)pyrazine-2-carboxamide], for which the half-maximal inhibitory concentration (IC50) is under 500 nM. For `CN1CCN([C@@H]2CCCN(c3cnc(C(N)=O)c(Nc4ccc(C5CCN(Cc6ccc(N7CCC(=O)NC7=O)cc6)CC5)cc4)n3)C2)C1=O` [GT-04802, (R)-3-((4-(1-(4-(2,4-dioxotetrahydropyrimidin-1(2H)-yl)benzyl)piperidin-4-yl)phenyl)amino)-5-(3-(3-methyl-2-oxoimidazolidin-1-yl)piperidin-1-yl)pyrazine-2-carboxamide] the value was 500 to 1000 nM; for `CN1CCN([C@@H]2CCCN(c3cnc(C(N)=O)c(Nc4ccc(C5CCN(Cc6ccc(N7CCC(=O)NC7=O)cc6F)CC5)cc4)n3)C2)C1=O` [GT-04803, (R)-3-((4-(1-(4-(2,4-dioxotetrahydropyrimidin-1(2H)-yl)-2-fluorobenzyl)piperidin-4-yl)phenyl)amino)-5-(3-(3-methyl-2-oxoimidazolidin-1-yl)piperidin-1-yl)pyrazine-2-carboxamide], 500 to 1000 nM. Then `CN1CCN([C@@H]2CCCN(c3cnc(C(N)=O)c(Nc4ccc(C5CCN(Cc6cccc(NC7CCC(=O)NC7=O)c6)CC5)cc4)n3)C2)C1=O` (stereo partly drawn) [GT-04804, 3-((4-(1-(3-((2,6-dioxopiperidin-3-yl)amino)benzyl)piperidin-4-yl)phenyl)amino)-5-((R)-3-(3-methyl-2-oxoimidazolidin-1-yl)piperidin-1-yl)pyrazine-2-carboxamide], with 1000 to 1900 nM; and `COc1ccc2cn(C3CCN(Cc4ccc(C5CCC(=O)NC5=O)cc4)CC3)nc2c1NC(=O)c1cccc(C(F)(F)F)c1` (stereo not shown) [GT-04813, N-(2-(1-(4-(2,6-dioxopiperidin-3-yl)benzyl)piperidin-4-yl)-6-methoxy-2H-indazol-7-yl)-3-(trifluoromethyl)benzamide], with 1000 to 1900 nM. With `COc1ccc2cn(C3CCN(Cc4ccc(C5CCC(=O)NC5=O)c(F)c4)CC3)nc2c1NC(=O)c1cccc(C(F)(F)F)c1` (stereo not shown) [GT-04814, N-(2-(1-(4-(2,6-dioxopiperidin-3-yl)-3-fluorobenzyl)piperidin-4-yl)-6-methoxy-2H-indazol-7-yl)-3-(trifluoromethyl)benzamide], the concentration for half-maximal inhibition (IC50) is 500 to 1000 nM.

Compound `Cc1ccc(-c2c(C)noc2C)cc1N(CC1CCN(Cc2cccc(N3CCC(=O)NC3=O)c2)CC1)c1ccc(C2(C#N)CC2)cc1` [GT-04842, 1-(4-((5-(3,5-dimethylisoxazol-4-yl)-2-methylphenyl)((1-(3-(2,4-dioxotetrahydropyrimidin-1(2H)-yl)benzyl)piperidin-4-yl)methyl)amino)phenyl)cyclopropane-1-carbonitrile] registered an IC50 of 1000 to 1900 nM. Regarding `Cc1ccc(-c2c(C)noc2C)cc1N(CC1CCN(Cc2ccc(N3CCC(=O)NC3=O)c(F)c2)CC1)c1ccc(C2(C#N)CC2)cc1` [GT-04843, 1-(4-((5-(3,5-dimethylisoxazol-4-yl)-2-methylphenyl)((1-(4-(2,4-dioxotetrahydropyrimidin-1(2H)-yl)-3-fluorobenzyl)piperidin-4-yl)methyl)amino)phenyl)cyclopropane-1-carbonitrile], the IC50 was 1000 to 1900 nM.

As for `Cc1ccc(-c2c(C)noc2C)cc1N(CC1CCN(Cc2ccc(N3CCC(=O)NC3=O)cc2)CC1)c1ccc(C2(C#N)CC2)cc1` [GT-04844, 1-(4-((5-(3,5-dimethylisoxazol-4-yl)-2-methylphenyl)((1-(4-(2,4-dioxotetrahydropyrimidin-1(2H)-yl)benzyl)piperidin-4-yl)methyl)amino)phenyl)cyclopropane-1-carbonitrile], the IC50 was in the range of 500 to 1000 nM. In turn, `O=C1CCN(c2ccc(CN3CCC(n4cc(NC(=O)c5coc(-c6ccnc(NCC7CC7)c6)n5)c(C(F)F)n4)CC3)nc2)C(=O)N1` [GT-04958, 2-(2-((cyclopropylmethyl)amino)pyridin-4-yl)-N-(3-(difluoromethyl)-1-(1-((5-(2,4-dioxotetrahydropyrimidin-1(2H)-yl)pyridin-2-yl)methyl)piperidin-4-yl)-1H-pyrazol-4-yl)oxazole-4-carboxamide] displayed a half-maximal inhibitory concentration (IC50) of 500 to 1000 nM.

`Nc1nnc(-c2ccccc2O)cc1N1CCN(Cc2ccc(N3CCC(=O)NC3=O)cc2)CC1` [GT-04961, 1-(4-((4-(3-amino-6-(2-hydroxyphenyl)pyridazin-4-yl)piperazin-1-yl)methyl)phenyl)dihydropyrimidine-2,4(1H,3H)-dione] displayed a 50% inhibitory concentration (IC50) of 500 to 1000 nM.
